Values of other authors as cited in PubChem BioAssay AID1259409 (Chemical Carcinogenesis Research Information System (CCRIS), 2018).

Test system: rodent chemically induced tumor inhibition, incidence and multiplicity
Experiment: CCRIS tumor inhibitor studies
Settings: Dose [Inhibitor]: 0, Route [Inhibitor]: ORAL, Species: RAT, Strain/Sex: F344/MALE, Promoter: NONE USED

O=C(O)c1ccc(O)c(O)c1
tumour outcome (control, treated, inhibition, significance) (Carcinogen: AZOXYMETHANE, 25843-45-2, 1000 PPM IN DIET FOR 28 WK BEGINNING 1 WK POST CARCINOGEN TREATMENT (STUDY DURATION: 32 WK), Target Tissue: Type of Lesion: LARGE INTESTINE: ADENOMA, Dose [Carcinogen]: 15 MG/KG BW 1/WK FOR 3 WK): 2/20 (10%), 2/23 (9%), 10%, not significant
tumour outcome (control, treated, inhibition, significance) (Carcinogen: AZOXYMETHANE, 25843-45-2, 1000 PPM IN DIET FOR 28 WK BEGINNING 1 WK POST CARCINOGEN TREATMENT (STUDY DURATION: 32 WK), Target Tissue: Type of Lesion: SMALL INTESTINE: ADENOCARCINOMA, Dose [Carcinogen]: 15 MG/KG BW 1/WK FOR 3 WK): 6/20 (30%), 2/23 (9%), 70%, not significant
tumour outcome (control, treated, inhibition, significance) (Carcinogen: AZOXYMETHANE, 25843-45-2, 1000 PPM IN DIET FOR 28 WK BEGINNING 1 WK POST CARCINOGEN TREATMENT (STUDY DURATION: 32 WK), Target Tissue: Type of Lesion: SMALL INTESTINE: ADENOMA, Dose [Carcinogen]: 15 MG/KG BW 1/WK FOR 3 WK): 1/20 (5%), 1/23 (4%), 20%, not significant
tumour outcome (control, treated, inhibition, significance) (Carcinogen: DIETHYLNITROSAMINE, 55-18-5, 500 PPM IN DIET BEGINNING 1 WK PRIOR TO CARCINOGEN AND CONTINUING FOR 7 WK FOLLOWED BY BASAL DIET FOR 30 WK (STUDY DU, Target Tissue: Type of Lesion: LIVER: ADENOMA OR CARCINOMA, Dose [Carcinogen]: 40 PPM IN DRINKING WATER FOR 5 WK BEGINNING AT 7 WK OF AGE): 18/18 (100%), 12/17 (71%), 29%, p=0.02
tumour outcome (control, treated, inhibition, significance) (Carcinogen: DIETHYLNITROSAMINE, 55-18-5, 500 PPM IN DIET FOR 7 WK BEGINNING 1 WK PRIOR TO CARCINOGEN TREATMENT (STUDY DURATION: 37 WK), Target Tissue: Type of Lesion: LIVER: ADENOMA, Dose [Carcinogen]: 40 PPM IN DRINKING WATER FOR 5 WK): 89%, 59%, 34%, not significant
tumour outcome (control, treated, inhibition, significance) (Carcinogen: DIETHYLNITROSAMINE, 55-18-5, 500 PPM IN DIET FOR 7 WK BEGINNING 1 WK PRIOR TO CARCINOGEN TREATMENT (STUDY DURATION: 37 WK), Target Tissue: Type of Lesion: LIVER: CARCINOMA, Dose [Carcinogen]: 40 PPM IN DRINKING WATER FOR 5 WK): 89%, 71%, 20%, not significant
tumour outcome (control, treated, inhibition, significance) (Carcinogen: DIETHYLNITROSAMINE, 55-18-5, 500 PPM IN DIET FOR 30 WK BEGINNING 1 WK POST CARCINOGEN TREATMENT (STUDY DURATION: 37 WK), Target Tissue: Type of Lesion: LIVER: ADENOMA, Dose [Carcinogen]: 40 PPM IN DRINKING WATER FOR 5 WK): 89%, 60%, 33%, p<0.05
tumour outcome (control, treated, inhibition, significance) (Carcinogen: DIETHYLNITROSAMINE, 55-18-5, 1000 PPM IN DIET FOR 7 WK BEGINNING 1 WK PRIOR TO CARCINOGEN TREATMENT (STUDY DURATION: 37 WK), Target Tissue: Type of Lesion: LIVER: ADENOMA, Dose [Carcinogen]: 40 PPM IN DRINKING WATER FOR 5 WK): 89%, 37%, 58%, p<0.05
tumour outcome (control, treated, inhibition, significance) (Carcinogen: DIETHYLNITROSAMINE, 55-18-5, 1000 PPM IN DIET FOR 30 WK BEGINNING 1 WK POST CARCINOGEN TREATMENT (STUDY DURATION: 37 WK), Target Tissue: Type of Lesion: LIVER: ADENOMA, Dose [Carcinogen]: 40 PPM IN DRINKING WATER FOR 5 WK): 89%, 68%, 24%, not significant
tumour outcome (control, treated, inhibition, significance) (Carcinogen: DIETHYLNITROSAMINE, 55-18-5, 1000 PPM IN DIET FOR 30 WK BEGINNING 1 WK POST CARCINOGEN TREATMENT (STUDY DURATION: 37 WK), Target Tissue: Type of Lesion: LIVER: CARCINOMA, Dose [Carcinogen]: 40 PPM IN DRINKING WATER FOR 5 WK): 89%, 32%, 64%, p<0.05
tumour outcome (control, treated, inhibition, significance) (Carcinogen: N-BUTYL-N-(4-HYDROXYBUTYL)NITROSAMINE, 3817-11-6, 500 PPM IN DIET FOR 8 WK BEGINNING 1 WK PRIOR TO CARCINOGEN TREATMENT (STUDY DURATION: 41 WK), Target Tissue: Type of Lesion: BLADDER: CARCINOMA, Dose [Carcinogen]: 0.05% IN DRINKING WATER FOR 6 WK): 17/22 (77%), 13/22 (59%), 23%, not significant
tumour outcome (control, treated, inhibition, significance) (Carcinogen: N-BUTYL-N-(4-HYDROXYBUTYL)NITROSAMINE, 3817-11-6, 500 PPM IN DIET FOR 8 WK BEGINNING 1 WK PRIOR TO CARCINOGEN TREATMENT (STUDY DURATION: 41 WK), Target Tissue: Type of Lesion: BLADDER: PAPILLOMA, Dose [Carcinogen]: 0.05% IN DRINKING WATER FOR 6 WK): 1/22 (5%), 3/22 (14%), -180%, not significant
tumour outcome (control, treated, inhibition, significance) (Carcinogen: N-BUTYL-N-(4-HYDROXYBUTYL)NITROSAMINE, 3817-11-6, 500 PPM IN DIET FOR 33 WK BEGINNING 1 WK POST CARCINOGEN TREATMENT (STUDY DURATION: 41 WK), Target Tissue: Type of Lesion: BLADDER: CARCINOMA, Dose [Carcinogen]: 0.05% IN DRINKING WATER FOR 6 WK): 17/22 (77%), 13/25 (52%), 32%, not significant
tumour outcome (control, treated, inhibition, significance) (Carcinogen: N-BUTYL-N-(4-HYDROXYBUTYL)NITROSAMINE, 3817-11-6, 500 PPM IN DIET FOR 33 WK BEGINNING 1 WK POST CARCINOGEN TREATMENT (STUDY DURATION: 41 WK), Target Tissue: Type of Lesion: BLADDER: PAPILLOMA, Dose [Carcinogen]: 0.05% IN DRINKING WATER FOR 6 WK): 1/22 (5%), 4/25 (16%), -220%, not significant
tumour outcome (control, treated, inhibition, significance) (Carcinogen: N-BUTYL-N-(4-HYDROXYBUTYL)NITROSAMINE, 3817-11-6, 1000 PPM IN DIET FOR 8 WK BEGINNING 1 WK PRIOR TO CARCINOGEN TREATMENT (STUDY DURATION: 41 WK), Target Tissue: Type of Lesion: BLADDER: CARCINOMA, Dose [Carcinogen]: 0.05% IN DRINKING WATER FOR 6 WK): 17/22 (77%), 9/22 (41%), 47%, p<0.03
tumour outcome (control, treated, inhibition, significance) (Carcinogen: N-BUTYL-N-(4-HYDROXYBUTYL)NITROSAMINE, 3817-11-6, 1000 PPM IN DIET FOR 8 WK BEGINNING 1 WK PRIOR TO CARCINOGEN TREATMENT (STUDY DURATION: 41 WK), Target Tissue: Type of Lesion: BLADDER: PAPILLOMA, Dose [Carcinogen]: 0.05% IN DRINKING WATER FOR 6 WK): 1/22 (5%), 0/22 (0%), 100%, not significant
tumour outcome (control, treated, inhibition, significance) (Carcinogen: N-BUTYL-N-(4-HYDROXYBUTYL)NITROSAMINE, 3817-11-6, 1000 PPM IN DIET FOR 33 WK BEGINNING 1 WK POST CARCINOGEN TREATMENT (STUDY DURATION: 41 WK), Target Tissue: Type of Lesion: BLADDER: CARCINOMA, Dose [Carcinogen]: 0.05% IN DRINKING WATER FOR 6 WK): 17/22 (77%), 12/25 (48%), 38%, p<0.05
tumour outcome (control, treated, inhibition, significance) (Carcinogen: N-BUTYL-N-(4-HYDROXYBUTYL)NITROSAMINE, 3817-11-6, 1000 PPM IN DIET FOR 33 WK BEGINNING 1 WK POST CARCINOGEN TREATMENT (STUDY DURATION: 41 WK), Target Tissue: Type of Lesion: BLADDER: PAPILLOMA, Dose [Carcinogen]: 0.05% IN DRINKING WATER FOR 6 WK): 1/22 (5%), 2/25 (8%), -60%, not significant
tumour outcome (control, treated, inhibition, significance) (Carcinogen: N-BUTYL-N-(4-HYDROXYBUTYL)NITROSAMINE, 3817-11-6, 2000 PPM IN DIET FOR 8 WK BEGINNING 1 WK PRIOR TO CARCINOGEN TREATMENT (STUDY DURATION: 41 WK), Target Tissue: Type of Lesion: BLADDER: CARCINOMA, Dose [Carcinogen]: 0.05% IN DRINKING WATER FOR 6 WK): 17/22 (77%), 8/25 (32%), 58%, p<0.005
tumour outcome (control, treated, inhibition, significance) (Carcinogen: N-BUTYL-N-(4-HYDROXYBUTYL)NITROSAMINE, 3817-11-6, 2000 PPM IN DIET FOR 8 WK BEGINNING 1 WK PRIOR TO CARCINOGEN TREATMENT (STUDY DURATION: 41 WK), Target Tissue: Type of Lesion: BLADDER: PAPILLOMA, Dose [Carcinogen]: 0.05% IN DRINKING WATER FOR 6 WK): 1/22 (5%), 3/25 (12%), -140%, not significant
